The values below come from patent US10640563B2, “Anti-B7-H3 antibodies and antibody drug conjugates” (AbbVie Inc., priority 2016, dated 2020).

Marks after values point to notes of the source that are not given here.

In one experiment the test system is H1650. Briefly: In vivo xenograft model H1650. Set-up: species or system mouse. Conditions: NCI-H1650, 7.5 mg/kg/day.
For the next experiment, the system named is H1299. In words: In vivo xenograft model of non-small cell lung cancer H1299. Conditions: NCI-H1299; 7.5 mg/kg/day, QDx1/IV. How it is done:
(§1) The anti-tumor activity was assessed as monotherapy and in combination with docetaxel (H1650, H1299, H1975, and EBC1).

Another experiment has as its system H1975. In words: In vivo xenograft model of non-small cell lung cancer H1975. The following applies: NCI-H1975; 7.5 mg/kg/day, QDx1/IV. How it is done:
as §1

The test system of a further experiment is EBC1. Briefly: In vivo xenograft model of non-small cell lung cancer EBC1. Conditions: 7.5 mg/kg/day, QDx1/IV. How it is done:
as §1

The target in the next experiment is T1, mouse B7-H3 (Mus musculus, UniProt Q8VE98).
T1 construct: expressed in transfected cells; host or cells: mouse 3T12 fibroblasts
T1 sequence (Q8VE98 29-316): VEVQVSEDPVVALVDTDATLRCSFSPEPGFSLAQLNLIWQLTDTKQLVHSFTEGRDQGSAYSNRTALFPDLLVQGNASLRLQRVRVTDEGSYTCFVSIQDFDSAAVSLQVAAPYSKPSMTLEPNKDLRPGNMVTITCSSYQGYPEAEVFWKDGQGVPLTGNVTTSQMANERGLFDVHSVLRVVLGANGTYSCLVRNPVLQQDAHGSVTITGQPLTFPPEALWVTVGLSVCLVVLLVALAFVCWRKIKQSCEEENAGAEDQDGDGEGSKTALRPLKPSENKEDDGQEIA
In words: FACS binding to mouse 3T12 fibroblasts expressing mouse B7-H3. The following applies: purified mouse hybridoma mAb; cells expressing mouse B7-H3. (In general: In flow cytometry, cells or beads pass a laser one at a time.)

Experiment [1] concerns the target T2, soluble ECD of human B7-H3 (Homo sapiens, UniProt Q5ZPR3).
T2 construct: His tag (6xHis) (C); made in house
T2 sequence (Q5ZPR3 with tags, fused parts or gaps): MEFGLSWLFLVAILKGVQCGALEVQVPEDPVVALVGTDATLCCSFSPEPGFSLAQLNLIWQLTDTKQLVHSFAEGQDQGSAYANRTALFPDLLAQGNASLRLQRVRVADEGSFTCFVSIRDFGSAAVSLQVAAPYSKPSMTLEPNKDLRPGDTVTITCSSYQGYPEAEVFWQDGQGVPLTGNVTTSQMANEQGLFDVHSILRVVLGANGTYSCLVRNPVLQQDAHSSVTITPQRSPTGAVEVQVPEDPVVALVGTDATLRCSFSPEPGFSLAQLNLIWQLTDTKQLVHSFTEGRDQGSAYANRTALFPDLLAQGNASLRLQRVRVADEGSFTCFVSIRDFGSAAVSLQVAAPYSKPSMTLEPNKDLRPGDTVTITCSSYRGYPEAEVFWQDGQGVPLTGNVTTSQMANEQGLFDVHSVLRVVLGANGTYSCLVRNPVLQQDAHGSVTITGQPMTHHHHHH
Briefly: Biacore T200 SPR binding kinetics, mAb capture. Conditions: Biacore T200, Fc capture of mAb, B7-H3 ECD as analyte, 1:1 binding model. Summed up:
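Antibodies captured at ~50 RU via immobilized anti-Fc. B7-H3 ECD injected at 900, 100 and 11.11 nM in HBS-EP+ pH 7.4, with 900 s dissociation. Double-referenced data fitted to a 1:1 model for ka, kd and KD.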
A general note: In SPR one partner is held on a chip, and binding of the other changes the refractive index at the surface.

Experiment [2] deals with soluble ECD of cyno B7-H3. Briefly: Biacore T200 SPR binding kinetics, mAb capture. On the set-up: species or system cynomolgus monkey. The following applies: Biacore T200, Fc capture of mAb, B7-H3 ECD as analyte, 1:1 binding model.
Chain of soluble ECD of cyno B7-H3 (as listed by the source): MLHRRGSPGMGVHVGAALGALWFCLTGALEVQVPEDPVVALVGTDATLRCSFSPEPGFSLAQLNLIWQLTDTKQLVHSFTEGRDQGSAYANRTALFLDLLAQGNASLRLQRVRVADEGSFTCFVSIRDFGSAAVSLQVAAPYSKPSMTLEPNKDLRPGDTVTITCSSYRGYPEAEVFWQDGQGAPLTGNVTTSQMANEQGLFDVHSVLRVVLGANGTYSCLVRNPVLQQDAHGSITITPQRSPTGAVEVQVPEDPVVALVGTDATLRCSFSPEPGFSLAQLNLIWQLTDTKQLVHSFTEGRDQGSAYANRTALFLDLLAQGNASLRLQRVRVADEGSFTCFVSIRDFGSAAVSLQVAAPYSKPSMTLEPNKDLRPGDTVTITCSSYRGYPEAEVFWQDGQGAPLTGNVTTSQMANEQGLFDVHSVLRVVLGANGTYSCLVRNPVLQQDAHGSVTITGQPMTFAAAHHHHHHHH

Consider `CC(=O)O[C@@]12CO[C@@H]1C[C@H](O)[C@@]1(C)C(=O)[C@H](O)C3=C(C)[C@@H](OC(=O)[C@H](O)[C@@H](NC(=O)OC(C)(C)C)c4ccccc4)C[C@@](O)([C@@H](OC(=O)c4ccccc4)[C@H]21)C3(C)C` [Docetaxel], for which the “TGD (%)” value was 158* % in the experiment with H1650 (IV/Q14Dx3); 143% in the experiment on H1650 (QDx1/IV); 48% in the experiment on H1299; 77% in the experiment with H1975; 80% in the experiment on EBC1. Further, the “TGImax (%)” value was 80* % in the experiment with H1650 (IV/Q14Dx3); 84% in the experiment with H1650 (QDx1/IV); 87% with H1299; 81% in the experiment on H1975; 85% in the experiment on EBC1.

B1: Ab18: murine monoclonal Ab18 (antibody, V domains shown)
VH: QVQLQQSAAELARPGASVKMSCKASGYSFTSYTIHWVKQRPGQGLEWIGYINPNSRNTDYNQKFKDETTLTADRSSSTAYMQLISLTSEDSAVYYCARYSGSTPYWYFDVWGAGTTVTVSS
VL: QIVLTQSPAILSASPGEKVTMTCRASSSVSYMNWYQQKPGSSPKPWIYATSNLASGVPARFSVSVSGTSHSLTISRVEAEDAATYYCQQWSSNPLTFGAGTKLELK
Consider B1, for which the “FACS Binding (EC50 nM) Mouse B7-H3” value with mouse B7-H3 is reported as “No binding”. For the same molecule, in experiment [1], the “huB7-H3 ka” value stood at 210000 M⁻¹ s⁻¹ and the “huB7-H3 kd” value stood at 3.6e-05 s⁻¹. For the same molecule, in experiment [2], the “cynoB7-H3 ka” value is 240000 M⁻¹ s⁻¹ and the “cynoB7-H3 kd” value came out at 2.9e-05 s⁻¹.

B2: Ab6 (antibody, V domains shown)
VH: QVQLQQSGAELMKPGASVKISCKATGYTFSRYWIEWVKQRPGHGLEWIGEILPGSGSTNYNEKFKGKATFTADTSSNTAYMQVSSLTSEDSAVHYCARRGYGYVPYALDYWGQGTSVTVSS
VL: EIQMTQTTSSLSASLGDRVTISCRASQDISNSLNWYQQKPDGTVNLLIYYTSRLYSGVPSRFSGSGSGTDYSLTISNLEQEDIATYFCQQGNTLPYTFGGGTKLEIK
Take B2: the “FACS Binding (EC50 nM) Mouse B7-H3” value with mouse B7-H3 was “No binding”. In addition, in experiment [1], the “huB7-H3 ka” value came out at 12000 M⁻¹ s⁻¹ and the “huB7-H3 kd” value amounted to 0.01 s⁻¹. In experiment [2], the “cynoB7-H3 ka” value turned out to be 28000 M⁻¹ s⁻¹ and the “cynoB7-H3 kd” value was 0.012 s⁻¹.
